In ChEMBL document CHEMBL5370644, “Subplenones A-J: Dimeric Xanthones with Antibacterial Activity from the Endophytic Fungus Subplenodomus sp. CPCC 401465” (2023) one finds MIC data, which are given here for eleven compounds.

≈ marks a conversion by molar mass, not a printed value.

Common to all, as to format: functional
What all share (settings): time 16-20 hrs

The test system of assay [1] is Enterococcus faecalis. Briefly: Antibacterial activity against vancomycin-sensitive Enterococcus faecalis ATCC 29212 assessed as bacterial growth inhibition incubated for 16 to 20 hrs by CLSI based two-fold serial dilution method.
The test system of assay [2] is Staphylococcus aureus. The assay is described as follows: Antibacterial activity against methicillin-resistant Staphylococcus aureus ATCC 700698 assessed as bacterial growth inhibition incubated for 16 to 20 hrs by CLSI based two-fold serial dilution method.
The test system of assay [3] is Staphylococcus aureus. Briefly: Antibacterial activity against methicillin-sensitive Staphylococcus aureus ATCC 29213 assessed as bacterial growth inhibition incubated for 16 to 20 hrs by CLSI based two-fold serial dilution method.
The subject of assay [4] is Staphylococcus aureus. Briefly: Antibacterial activity against methicillin-resistant Staphylococcus aureus ATCC 43300 assessed as bacterial growth inhibition incubated for 16 to 20 hrs by CLSI based two-fold serial dilution method.
A further assay concerns Enterococcus faecium. Briefly: Antibacterial activity against vancomycin-resistant Enterococcus faecium ATCC 700221 assessed as bacterial growth inhibition incubated for 16 to 20 hrs by CLSI based two-fold serial dilution method.
In assay [5] the test system is Staphylococcus epidermidis. Briefly: Antibacterial activity against methicillin-sensitive Staphylococcus epidermidis ATCC 12228 assessed as bacterial growth inhibition incubated for 16 to 20 hrs by CLSI based two-fold serial dilution method.
In assay [6] the test system is Enterococcus faecalis. Briefly: Antibacterial activity against vancomycin-resistant Enterococcus faecalis ATCC 51299 assessed as bacterial growth inhibition incubated for 16 to 20 hrs by CLSI based two-fold serial dilution method.

For `CC1=CC(O)=C2C(=O)c3c(ccc(-c4ccc5c(c4O)C(=O)C4=C(O)C=C(C)C(=O)[C@]4(C)O5)c3O)O[C@@]2(C)C1=O`, the MIC (commonly the smallest concentration in the dilution series that meets the test's criterion for growth inhibition) with Enterococcus faecalis [1] came out at 4 µg/mL (≈ 7.37 µM); in the assay on Staphylococcus aureus [2], 0.5 µg/mL (≈ 0.922 µM); in the assay on Staphylococcus aureus [3], 1 µg/mL (≈ 1.84 µM); in the assay with Staphylococcus aureus [4], 1 µg/mL (≈ 1.84 µM); with Enterococcus faecium, 1 µg/mL (≈ 1.84 µM); in assay [5], 0.25 µg/mL (≈ 0.461 µM). In addition, in the assay on Enterococcus faecalis [6], the MIC came to 4 µg/mL (≈ 7.37 µM).
`CC1=CC(O)=C2C(=O)c3c(ccc(-c4ccc5c(c4O)C(=O)C4=C(O)C=C(C)[C@H](O)[C@]4(C)O5)c3O)O[C@@]2(C)[C@H]1O`: the MIC was 128 µg/mL (≈ 234 µM) with Enterococcus faecalis [1]; 2 µg/mL (≈ 3.66 µM) in the assay on Staphylococcus aureus [2]; 2 µg/mL (≈ 3.66 µM) in the assay with Staphylococcus aureus [3]; 4 µg/mL (≈ 7.32 µM) with Staphylococcus aureus [4]; 16 µg/mL (≈ 29.3 µM) with Enterococcus faecium; 1 µg/mL (≈ 1.83 µM) in assay [5]. For the same compound, in the assay with Enterococcus faecalis [6], the MIC is 128 µg/mL (≈ 234 µM).
On to `CC1=CC(O)=C2C(=O)c3c(ccc(-c4ccc5c(c4O)C(=O)C4=C(O)C[C@@H](C)[C@H](O)[C@@]4(C)O5)c3O)O[C@@]2(C)[C@H]1O`, for which the MIC in the assay on Enterococcus faecalis [1] was 2 µg/mL (≈ 3.65 µM); in the assay with Staphylococcus aureus [2], 0.25 µg/mL (≈ 0.456 µM); with Staphylococcus aureus [3], 0.5 µg/mL (≈ 0.912 µM); in the assay with Staphylococcus aureus [4], 0.5 µg/mL (≈ 0.912 µM); with Enterococcus faecium, 1 µg/mL (≈ 1.82 µM); in assay [5] it was not above 0.125 µg/mL. Further, in the assay with Enterococcus faecalis [6], the minimal inhibitory concentration (MIC) was determined as 4 µg/mL (≈ 7.29 µM).
As for `C[C@H]1COc2c(N3CCN(C)CC3)c(F)cc3c(=O)c(C(=O)O)cn1c23` [LEVOFLOXACIN ANHYDROUS], the minimum inhibitory concentration (MIC) with Enterococcus faecalis [1] is 1 µg/mL (≈ 2.77 µM); in the assay with Staphylococcus aureus [2], 0.125 µg/mL (≈ 0.346 µM); with Staphylococcus aureus [3], 0.125 µg/mL (≈ 0.346 µM); in the assay on Staphylococcus aureus [4], 0.125 µg/mL (≈ 0.346 µM); in the assay with Enterococcus faecium it was more than 64 µg/mL; in assay [5], 0.25 µg/mL (≈ 0.692 µM). Moreover, the MIC in the assay with Enterococcus faecalis [6] came out at 1 µg/mL (≈ 2.77 µM).
For `CC1=CC(O)=C2C(=O)c3c(ccc(-c4ccc5c(c4O)C(=O)C4=C(O)C=C(C)[C@H](O)[C@]4(C)O5)c3O)O[C@]2(C)C1=O`, the minimal inhibitory concentration (MIC) was 2 µg/mL (≈ 3.67 µM) in the assay on Enterococcus faecalis [1]; 0.25 µg/mL (≈ 0.459 µM) in the assay with Staphylococcus aureus [2]; 0.5 µg/mL (≈ 0.918 µM) in the assay with Staphylococcus aureus [3]; 0.5 µg/mL (≈ 0.918 µM) in the assay with Staphylococcus aureus [4]; 0.5 µg/mL (≈ 0.918 µM) in the assay with Enterococcus faecium; not above 0.125 µg/mL in assay [5]. For the same compound, the MIC in the assay on Enterococcus faecalis [6] came out at 2 µg/mL (≈ 3.67 µM).
Turning to `CC1=CC(O)=C2C(=O)c3c(ccc(-c4ccc5c(c4O)C(=O)C4=C(O)C=C(C)[C@H](O)[C@]4(C)O5)c3O)O[C@@]2(C)C1=O`, the MIC in the assay on Enterococcus faecalis [1] was 4 µg/mL (≈ 7.35 µM); with Staphylococcus aureus [2] it was 0.5 µg/mL (≈ 0.918 µM); in the assay with Staphylococcus aureus [3], 1 µg/mL (≈ 1.84 µM); with Staphylococcus aureus [4] it was 1 µg/mL (≈ 1.84 µM); in the assay with Enterococcus faecium, 2 µg/mL (≈ 3.67 µM); in assay [5], not above 0.125 µg/mL. Further, the minimum inhibitory concentration (MIC) with Enterococcus faecalis [6] was 4 µg/mL (≈ 7.35 µM).
With `CC1=CC(O)=C2C(=O)c3c(ccc(-c4ccc5c(c4O)C(=O)[C@@]4(O)C(=O)C=C(C)[C@H](O)[C@]4(C)O5)c3O)O[C@]2(C)[C@H]1O`, the MIC in the assay with Enterococcus faecalis [1] is 16 µg/mL (≈ 28.4 µM); in the assay on Staphylococcus aureus [2], 4 µg/mL (≈ 7.11 µM); with Staphylococcus aureus [3] it was 4 µg/mL (≈ 7.11 µM); with Staphylococcus aureus [4] it was 4 µg/mL (≈ 7.11 µM); in the assay on Enterococcus faecium, 4 µg/mL (≈ 7.11 µM); in assay [5] it was 0.5 µg/mL (≈ 0.889 µM). Also, the MIC in the assay with Enterococcus faecalis [6] was 16 µg/mL (≈ 28.4 µM).
As to `CC1=CC(O)=C2C(=O)c3c(ccc(-c4ccc(O)c(C(=O)c5c(O)cc(C)c(O)c5C)c4O)c3O)O[C@@]2(C)[C@H]1O`, the MIC with Enterococcus faecalis [1] was 2 µg/mL (≈ 3.66 µM); with Staphylococcus aureus [2] it was 0.5 µg/mL (≈ 0.915 µM); in the assay on Staphylococcus aureus [3], 1 µg/mL (≈ 1.83 µM); with Staphylococcus aureus [4], 1 µg/mL (≈ 1.83 µM); in the assay with Enterococcus faecium, 1 µg/mL (≈ 1.83 µM); in assay [5] it was not above 0.125 µg/mL. For the same compound, the minimal inhibitory concentration (MIC) in the assay on Enterococcus faecalis [6] was 4 µg/mL (≈ 7.32 µM).
For the compound `CC1=CC(O)=C2C(=O)c3c(O)ccc(-c4ccc5c(c4O)C(=O)C4=C(O)C=C(C)[C@H](O)[C@]4(C)O5)c3O[C@@]2(C)C1=O`, the MIC is 2 µg/mL (≈ 3.67 µM) in the assay with Enterococcus faecalis [1]; 0.25 µg/mL (≈ 0.459 µM) in the assay with Staphylococcus aureus [2]; 0.5 µg/mL (≈ 0.918 µM) in the assay with Staphylococcus aureus [3]; 0.5 µg/mL (≈ 0.918 µM) in the assay on Staphylococcus aureus [4]; 0.5 µg/mL (≈ 0.918 µM) with Enterococcus faecium; not above 0.125 µg/mL in assay [5]. Also, the MIC with Enterococcus faecalis [6] amounted to 2 µg/mL (≈ 3.67 µM).
`CC1=CC(O)=C2C(=O)c3c(O)ccc(-c4ccc5c(c4O)C(=O)C4=C(O)C=C(C)[C@H](O)[C@]4(C)O5)c3O[C@]2(C)C1=O`: the MIC came to 4 µg/mL (≈ 7.35 µM) with Enterococcus faecalis [1]; 0.5 µg/mL (≈ 0.918 µM) with Staphylococcus aureus [2]; 1 µg/mL (≈ 1.84 µM) in the assay with Staphylococcus aureus [3]; 1 µg/mL (≈ 1.84 µM) in the assay with Staphylococcus aureus [4]; 1 µg/mL (≈ 1.84 µM) with Enterococcus faecium; 0.25 µg/mL (≈ 0.459 µM) in assay [5]. Further, the MIC in the assay on Enterococcus faecalis [6] was 4 µg/mL (≈ 7.35 µM).
`CC1=C[C@H](O)[C@]2(O)C(=O)c3c(ccc(-c4ccc5c(c4O)C(=O)C4=C(O)C[C@@H](C)[C@H](O)[C@@]4(C)O5)c3O)O[C@@]2(C)[C@H]1O`: the MIC is 2 µg/mL (≈ 3.53 µM) in the assay with Enterococcus faecalis [1]; 0.5 µg/mL (≈ 0.883 µM) in the assay with Staphylococcus aureus [2]; 0.5 µg/mL (≈ 0.883 µM) with Staphylococcus aureus [3]; 0.5 µg/mL (≈ 0.883 µM) with Staphylococcus aureus [4]; 1 µg/mL (≈ 1.77 µM) in the assay with Enterococcus faecium; not above 0.125 µg/mL in assay [5]. The MIC in the assay on Enterococcus faecalis [6] came to 4 µg/mL (≈ 7.06 µM).
